{"source": "patent US20160271178A1", "about": "“NANOPARTICLE-CONTAINING HYDROGELS” (priority 2013, published 2016)", "system": "P. aeruginosa", "assay": "Bacterial suspension assay (OD measurement)", "format": "cell-based", "conditions": "tetracycline 10 and 20 μg/mL; 24 h", "experimental": "Gels were prepared in 24-well sterile Nunc plates. 10 mM AgNO3 solution in 100 mM Tris-buffer (pH=8.5) was freshly prepared and used to dissolve the peptide to a final concentration of 10 mg/mL. The resultant solution was sonicated for 15-20 s to ensure complete dissolution of the peptide. 400 μL of the peptide solution was then aliquoted into each well and allowed to spread evenly on the surface. […] Prior to use, the plates were exposed to short-wavelength UV at 254 nm for 5 minutes to allow Ag NP formation. For the control gels, 100 mM Tris buffer without AgNO3 was used for Ac-LK6—NH2 hydrogel preparation.\n50 μL of bacterial stock was inoculated overnight in 5 mL of Luria-Bertani (LB) medium (pH=7.5), with constant shaking at 300 rpm at 37° C. The log-phase bacterial solution was then diluted in LB medium to obtain an O.D. of 0.07 (at 600 nm). This was used as the starting bacterial solution (0 hr reading) and 400 μL of the solution was dispensed into each well of the 24-well plate containing the hydrogels. […] Ac-LK6—NH2 hydrogels without Ag NPs and bacteria-only solutions served as the negative controls. […] For the O.D. readings, 100 μL of the bacterial solution was transferred into a transparent 96 well Nunc plate just before measurement, to prevent the hydrogel layer from influencing absorbance measurements. […]", "data": [{"smiles": "CN(C)[C@@H]1C(O)=C(C(N)=O)C(=O)[C@@]2(O)C(O)=C3C(=O)c4c(O)cccc4[C@@](C)(O)[C@H]3C[C@@H]12", "note": "[tetracycline, Tetracycline]", "values": [{"measurement": "growth inhibition compared to the untreated control", "value": "about 50%"}]}]}
